Assay results as given in article PMC9090415, “Discovery of small molecule inhibitors of Plasmodium falciparum apicoplast DNA polymerase” (Journal of Enzyme Inhibition and Medicinal Chemistry, 2022).

Biological target: T1, bacteriophage T4 DNA polymerase (Enterobacteria phage T4, UniProt P04415)
T1 construct: made in house
T1 sequence (P04415 1-898): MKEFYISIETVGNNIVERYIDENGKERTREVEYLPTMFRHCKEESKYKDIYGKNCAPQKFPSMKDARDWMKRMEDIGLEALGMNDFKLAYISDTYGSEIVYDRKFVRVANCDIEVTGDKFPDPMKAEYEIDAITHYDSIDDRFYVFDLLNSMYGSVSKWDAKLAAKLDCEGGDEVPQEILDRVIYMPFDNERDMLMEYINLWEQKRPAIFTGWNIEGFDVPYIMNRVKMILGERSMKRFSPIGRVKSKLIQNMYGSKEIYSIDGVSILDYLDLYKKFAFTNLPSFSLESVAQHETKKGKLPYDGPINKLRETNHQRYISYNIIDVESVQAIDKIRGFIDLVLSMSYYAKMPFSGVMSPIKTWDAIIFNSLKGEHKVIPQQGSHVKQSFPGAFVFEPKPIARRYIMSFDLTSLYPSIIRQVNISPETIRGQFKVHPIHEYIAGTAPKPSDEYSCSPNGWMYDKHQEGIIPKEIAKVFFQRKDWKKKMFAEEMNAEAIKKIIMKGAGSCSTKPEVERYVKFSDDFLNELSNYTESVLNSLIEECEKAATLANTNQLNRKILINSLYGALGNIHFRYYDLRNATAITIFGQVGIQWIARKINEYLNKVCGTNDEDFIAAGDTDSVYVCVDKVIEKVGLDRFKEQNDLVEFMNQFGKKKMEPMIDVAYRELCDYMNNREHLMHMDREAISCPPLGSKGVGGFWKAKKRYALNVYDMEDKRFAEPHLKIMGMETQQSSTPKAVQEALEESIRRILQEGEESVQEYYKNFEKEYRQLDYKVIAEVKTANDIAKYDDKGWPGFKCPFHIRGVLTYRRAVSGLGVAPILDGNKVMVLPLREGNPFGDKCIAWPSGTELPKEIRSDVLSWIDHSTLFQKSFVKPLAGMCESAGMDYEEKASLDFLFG
Assay: Counter-screen against bacteriophage T4 DNA polymerase
Type: biochemical
Details: for % inhibition T4 10' 2.5 / % inhibition T4 10' 5 / % inhibition T4 10' 10 / % inhibition T4 10' 20 / % inhibition T4 10' 40 / % inhibition T4 10' 80: read at 10'
Outline: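 IC50 values come from dose-response testing of each compound against T4 DNA polymerase. This B-family polymerase was purified in-house and used as the counter-screen.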

**Q.** With `CC(=O)Nc1cc(C(=O)c2cccs2)nn(-c2ccc(Cl)cc2)c1=O` [KU0267905] as the compound, how does the “% inhibition T4 10' 2.5” value (DRC-1, concentration 2.5) read?
**A.** -2.1822%

**Q.** What about the “% inhibition T4 10' 5” value (DRC-1, concentration 5) of the same compound?
**A.** -1.511%

**Q.** What about the “% inhibition T4 10' 10” value (DRC-1, concentration 10) of the same compound?
**A.** 8.968%

**Q.** What about the “% inhibition T4 10' 20” value (DRC-1, concentration 20) of the same compound?
**A.** 21.6077%

**Q.** What about the “% inhibition T4 10' 40” value (DRC-1, concentration 40) of the same compound?
**A.** 20.7445%

**Q.** And the “% inhibition T4 10' 80” value (DRC-1, concentration 80)?
**A.** 21.8297%

**Q.** What about the “% inhibition T4 70' 2.5” value (DRC-1, read at 70', concentration 2.5) of the same compound?
**A.** -0.6527%

**Q.** What about the “% inhibition T4 70' 5” value (DRC-1, read at 70', concentration 5) of the same compound?
**A.** -1.806%

**Q.** What about the “% inhibition T4 70' 10” value (DRC-1, read at 70', concentration 10) of the same compound?
**A.** 6.193%

**Q.** What about the “% inhibition T4 70' 20” value (DRC-1, read at 70', concentration 20) of the same compound?
**A.** 12.7493%

**Q.** And the “% inhibition T4 70' 40” value (DRC-1, read at 70', concentration 40)?
**A.** 13.4043%

**Q.** And the “% inhibition T4 70' 80” value (DRC-1, read at 70', concentration 80)?
**A.** 12.69%

**Q.** What about the “% inhibition T4 130' 2.5” value (DRC-1, read at 130', concentration 2.5) of the same compound?
**A.** -1.3658%

**Q.** And the “% inhibition T4 130' 5” value (DRC-1, read at 130', concentration 5)?
**A.** -4.349%

**Q.** And the “% inhibition T4 130' 10” value (DRC-1, read at 130', concentration 10)?
**A.** 2.501%

**Q.** And the “% inhibition T4 130' 20” value (DRC-1, read at 130', concentration 20)?
**A.** 8.205%

**Q.** What about the “% inhibition T4 130' 40” value (DRC-1, read at 130', concentration 40) of the same compound?
**A.** 8.984%

**Q.** What about the “% inhibition T4 130' 80” value (DRC-1, read at 130', concentration 80) of the same compound?
**A.** 8.594%

**Q.** What about the “% inhibition T4 10' 2.5” value (DRC-2, concentration 2.5) of the same compound?
**A.** 8%

**Q.** What about the “% inhibition T4 10' 5” value (DRC-2, concentration 5) of the same compound?
**A.** 8.43%

**Q.** What about the “% inhibition T4 10' 10” value (DRC-2, concentration 10) of the same compound?
**A.** 8%

**Q.** And the “% inhibition T4 10' 20” value (DRC-2, concentration 20)?
**A.** 1.18%

**Q.** What about the “% inhibition T4 10' 40” value (DRC-2, concentration 40) of the same compound?
**A.** 7%

**Q.** And the “% inhibition T4 10' 80” value (DRC-2, concentration 80)?
**A.** 2.64%

**Q.** And the “% inhibition T4 40' 2.5” value (DRC-2, read at 40', concentration 2.5)?
**A.** 7%

**Q.** What about the “% inhibition T4 40' 5” value (DRC-2, read at 40', concentration 5) of the same compound?
**A.** 7.5%

**Q.** What about the “% inhibition T4 40' 10” value (DRC-2, read at 40', concentration 10) of the same compound?
**A.** 6.35%

**Q.** And the “% inhibition T4 40' 20” value (DRC-2, read at 40', concentration 20)?
**A.** 0.171%

**Q.** What about the “% inhibition T4 40' 40” value (DRC-2, read at 40', concentration 40) of the same compound?
**A.** 4%

**Q.** What about the “% inhibition T4 40' 80” value (DRC-2, read at 40', concentration 80) of the same compound?
**A.** 0.303%

**Q.** And the “% inhibition T4 90' 2.5” value (DRC-2, read at 90', concentration 2.5)?
**A.** 5%

**Q.** And the “% inhibition T4 90' 5” value (DRC-2, read at 90', concentration 5)?
**A.** 5%

**Q.** What about the “% inhibition T4 90' 10” value (DRC-2, read at 90', concentration 10) of the same compound?
**A.** 4%

**Q.** What about the “% inhibition T4 90' 20” value (DRC-2, read at 90', concentration 20) of the same compound?
**A.** -2%

**Q.** And the “% inhibition T4 90' 40” value (DRC-2, read at 90', concentration 40)?
**A.** 2.26%

**Q.** And the “% inhibition T4 90' 80” value (DRC-2, read at 90', concentration 80)?
**A.** -0.743%

**Q.** And the “% inhibition T4 180' 2.5” value (DRC-2, read at 180', concentration 2.5)?
**A.** 0.767%

**Q.** What about the “% inhibition T4 180' 5” value (DRC-2, read at 180', concentration 5) of the same compound?
**A.** 0.673%

**Q.** What about the “% inhibition T4 180' 10” value (DRC-2, read at 180', concentration 10) of the same compound?
**A.** 0.174%

**Q.** What about the “% inhibition T4 180' 20” value (DRC-2, read at 180', concentration 20) of the same compound?
**A.** -8%

**Q.** And the “% inhibition T4 180' 40” value (DRC-2, read at 180', concentration 40)?
**A.** -2.82%

**Q.** And the “% inhibition T4 180' 80” value (DRC-2, read at 180', concentration 80)?
**A.** -3.56%

**Q.** For `CC(NC(=O)Cc1cc(=O)[nH]c(SCc2cccc(Cl)c2)n1)c1ccccc1` (stereo not shown) [Molecule 67, O=C(NC(c1ccccc1)C)Cc1nc(SCc2cccc(c2)Cl)[nH]c(=O)c1], which “% inhibition T4 10'” value (DRC-2, concentration 10) is on record?
**A.** 19%

**Q.** And the “% inhibition T4 10'” value (DRC-2, concentration 20)?
**A.** 18%

**Q.** And the “% inhibition T4 10'” value (DRC-2, concentration 80)?
**A.** 31%

**Q.** And the “% inhibition T4 40'” value (DRC-2, concentration 2.5)?
**A.** -9%

**Q.** And the “% inhibition T4 40'” value (DRC-2, concentration 10)?
**A.** 19%

**Q.** And the “% inhibition T4 40'” value (DRC-2, concentration 20)?
**A.** 19%

**Q.** And the “% inhibition T4 40'” value (DRC-2, concentration 40)?
**A.** 31%

**Q.** And the “% inhibition T4 90'” value (DRC-2, concentration 2.5)?
**A.** -9%

**Q.** What about the “% inhibition T4 90'” value (DRC-2, concentration 10) of the same compound?
**A.** 18%

**Q.** What about the “% inhibition T4 90'” value (DRC-2, concentration 20) of the same compound?
**A.** 18%

**Q.** How did the “% inhibition T4 10'” value (DRC-2, concentration 2.5) turn out when `Cc1ccccc1C(=O)N1CCc2c(nc3cc(-c4ccccc4)[nH]n3c2=O)C1` [Molecule 41, Cc1ccccc1C(=O)N1CCc2c(C1)nc1n(c2=O)[nH]c(c1)c1ccccc1] was run?
**A.** 10%

**Q.** And the “% inhibition T4 10'” value (DRC-2, concentration 5)?
**A.** 13%

**Q.** What about the “% inhibition T4 10'” value (DRC-2, concentration 10) of the same compound?
**A.** 5%

**Q.** What about the “% inhibition T4 10'” value (DRC-2, concentration 20) of the same compound?
**A.** -10%

**Q.** And the “% inhibition T4 10'” value (DRC-2, concentration 40)?
**A.** -26%

**Q.** And the “% inhibition T4 10'” value (DRC-2, concentration 80)?
**A.** -46%

**Q.** What about the “% inhibition T4 40'” value (DRC-2, concentration 2.5) of the same compound?
**A.** 10%

**Q.** What about the “% inhibition T4 40'” value (DRC-2, concentration 5) of the same compound?
**A.** 13%

**Q.** What about the “% inhibition T4 40'” value (DRC-2, concentration 10) of the same compound?
**A.** 5%

**Q.** What about the “% inhibition T4 40'” value (DRC-2, concentration 20) of the same compound?
**A.** -10%

**Q.** What about the “% inhibition T4 40'” value (DRC-2, concentration 40) of the same compound?
**A.** -26%

**Q.** What about the “% inhibition T4 40'” value (DRC-2, concentration 80) of the same compound?
**A.** -46%
